Measured values from US8981111B2 (priority 2008, dated 2015).

Experiment: log P (HPLC/MS data of the preparation examples)
Details: for log p: linear gradient 10% to 95% acetonitrile
[1] = LC-MS, method [b]: pH 2.7 with 0.1% formic acid in water and acetonitrile
[2] = method [b]: LC-MS at pH 2.7, 0.1% formic acid in water / acetonitrile
[3] = HPLC (LC-MS) method [b]: pH 2.7, 0.1% formic acid in water and acetonitrile, EEC directive 79/831 Annex V.A8

| Compound | log p [1] | further results |
| --- | --- | --- |
| 2-[({[(1-methyl-1H-imidazol-2-yl)(phenyl)methylene]amino}oxy)methyl]pyrimidin-4-amine [Example 7] | 1.26^[b] | log P(Neutral) (Neutral): 1.42 |
| Cn1nc(C(=NOCc2cccc(NC(=O)C(C)(C)C)n2)c2ccccc2)n(C)c1=O [Example 147] | – | log p [2]: 2.86^[b] |
| 6-[({[(1-methyl-1H-imidazol-5-yl)(phenyl)methylene]amino}oxy)methyl]pyridin-2-amine [Example 108] | 4.75^[b] | log P(HCOOH): 0.29 |
| Cn1ccnc1C(=NOCc1cccc(NC(=O)C2CCCCO2)n1)c1ccccc1 (stereo not shown) [Example 338] | 1.93^[b] | – |
| CC(C)CC(=O)NCc1cccc(CON=C(c2ccccc2)c2ncnn2C)n1 [Example 136] | 2.23^[b] | – |
| Cn1ccnc1C(=NOCc1cccc(NC(=O)COc2ccccc2)n1)c1ccccc1 [Example 280] | 2.58^[b] | – |
| CC(C)C(=O)Nc1cccc(CON=C(c2ccccc2)c2cncn2C)n1 [Example 125] | 1.63^[b] | – |
| Cn1ncnc1C(=NOCc1cccc(NC(=O)CCc2ccccc2Cl)n1)c1ccccc1 [Example 301] | 3.72^[b] | – |
| Cn1ccnc1C(=NOCc1nccc(NC(=O)C(C(=O)Cc2ccccc2)c2ccccc2)n1)c1ccccc1 (stereo not shown) [Example 166] | – | log p [2]: 2.59^[b] |
| C=CCCOC(=O)Nc1cccc(CON=C(c2ccccc2)c2nccn2C)n1 [Example 328] | 2.02^[b] | – |
| CCCCCCCOC(=O)Nc1cccc(CON=C(c2ccccc2)c2ncnn2C)n1 [Example 106] | 4.86^[b] | – |
| CCCCCCCCCC(=O)Nc1cccc(CON=C(c2ccccc2)c2cncn2C)n1 [Example 254] | – | log p [2]: 3.09^[b] |
| Cc1ccc(C(=NOCc2nccc(NC(=O)C3CC3)n2)c2ncnn2C)cc1 [Example 40] | 2.46^[b] | – |
| Cn1c(C(=NOCc2cccc(NC(=O)C(C)(C)C)n2)c2ccccc2)nnc1C(F)(F)F [Example 198] | – | log p [2]: 3.58^[b] |
| CCCCCC(=O)Nc1cccc(CON=C(c2ccccc2)c2nc(C(F)(F)F)nn2C)n1 [Example 182] | – | log p [2]: 4.67^[b] |
| CCCCCOC(=O)Nc1ccnc(CON=C(c2ccccc2)c2cnnn2C)n1 [Example 87] | 3.55^[b] | – |
| CCCCS(=O)(=O)Nc1cccc(CON=C(c2ccccc2)c2cnnn2C)n1 [Example 76] | 2.86^[b] | – |
| CCCCCC(=O)Nc1cccc(CON=C(c2ccccc2)c2ocnc2C)n1 (single isomer, unassigned) [Example 323] | 3.67^[b] | – |
| Cn1ncnc1C(=NOCc1cccc(NC(=O)Cc2ccccc2C(F)(F)F)n1)c1ccccc1 [Example 245] | – | log p [2]: 3.51^[b] |
| COC(=O)CCCC(=O)Nc1cccc(CON=C(c2ccccc2)c2ncnn2C)n1 [Example 43] | 2.39^[b] | – |
| CCCCC(=O)Nc1nc(CON=C(c2cccs2)c2cncn2C)cs1 [Example 453] | – | log p [3]: 1.7^[b] |
| CCCCCCOC(=O)Nc1cccc(CON=C(c2ccccc2)c2ncnn2C)n1 [Example 88] | 4.36^[b] | – |
| Cc1cnc(C)c(C(=NOCc2cccc(N3C(=O)c4ccccc4C3=O)n2)c2ccccc2)n1 [Example 372] | 3.35^[b] | – |
| CC(C)CC(=O)Nc1cccc(CON=C(c2cccs2)c2nccn2C)n1 [Example 412] | 1.91^[b] | – |

| Compound | log p [1] | further results |
| --- | --- | --- |
| Cn1ncnc1C(=NOCc1cccc(NC(=O)CCc2ccc(C(F)(F)F)cc2)n1)c1ccccc1 [Example 302] | 3.9^[b] | – |
| COc1ccc(C(=NOCc2cccc(NC(=O)CC(C)C)n2)c2ncc(C(F)(F)F)cc2Cl)cc1Br [Example 370] | 5.03^[b] | – |
| CC(=O)OCCCCOC(=O)Nc1cccc(CON=C(c2ccccc2)c2nc(C(F)(F)F)nn2C)n1 [Example 185] | – | log p [2]: 4.11^[b] |
| Cn1ncnc1C(=NOCc1cccc(N)n1)c1cccs1 [Example 391] | 0.82^[b] | – |
| CC(C)COC(=O)Nc1cccc(CON=C(c2ccccc2)c2nc(C(F)(F)F)nn2C)n1 [Example 180] | – | log p [2]: 4.78^[b] |
| CCCCCOC(=O)Nc1cccc(CON=C(c2ccccc2)c2nc(C)cnc2C)n1 [Example 378] | 4.75^[b] | – |
| CCCCCC(=O)Nc1cccc(CON=C(c2ccccc2)c2ncnn2C)n1 [Example 28, N-{6-[({[(1-methyl-1H-1,2,4-triazol-5-yl)(phenyl)methylene]amino}oxy)methyl]pyridin-2-yl}hexanamide] | – | chromatographic logP (reversed phase HPLC column, pH 2.7): 3.39 |
| Cn1ncnc1C(=NOCc1cccc(NC(=O)C(C)(C)C)n1)c1cccs1 [Example 395] | 2.82^[b] | – |
| Cc1nnsc1C(=NOCc1cccc(NC(=O)Cc2ccccc2)n1)c1ccccc1 [Example 219] | – | log p [2]: 4.04^[b] |
| Cn1cncc1C(=NOCc1csc(N)n1)c1ccsc1 [Example 496, 4-[({[(1-methyl-1H-imidazol-5-yl)(3-thienyl)methylene]amino}oxy)methyl]-1,3-thiazol-2-amine] | – | chromatographic logP (HCOOH (formic acid)): 0.45 |
| CCCCC(=O)Nc1cccc(CON=C(c2ccccc2)c2nnc(C(F)(F)F)n2C)n1 [Example 207] | – | log p [2]: 3.58^[b] |
| Cn1ncnc1C(=NOCc1cccc(NC(=O)C(C)(C)C)n1)c1ncc(C(F)(F)F)cc1Cl [Example 470] | – | log p [3]: 3.44^[b] |
| Cn1ncnc1C(=NOCc1nccc(NC(=O)C(C)(C)C)n1)c1cccs1 [Example 407] | 2.59^[b] | – |
| C=CCCC(=O)Nc1cccc(CON=C(c2ccccc2)c2ncnn2C)n1 [Example 310] | 2.77^[b] | – |
| Cc1cccc(C(=NOCc2cccc(NC(=O)C(C)(C)C)n2)c2ncnn2C)c1 [Example 22] | 3.31^[b] | – |
| Cn1ncnc1C(=NOCc1csc(NC(=O)C(C)(C)C)n1)c1ccccc1 [Example 101] | 2.92^[b] | – |
| CCCC(=O)Nc1ccnc(CON=C(c2ccccc2)c2nccn2C)n1 [Example 58] | 1.68^[b] | – |
| CCc1ccc(C(=O)Nc2cccc(CON=C(c3ccccc3)c3ncnn3C)n2)cc1 [Example 252] | – | log p [2]: 3.73^[b] |
| Cn1cncc1C(=O)c1cccs1 [(1-methyl-1H-imidazol-5-yl)(2-thienyl)methanone] | – | chromatographic logP (HCOOH (formic acid)): 0.52 |
| Cc1nnsc1C(=NOCc1cccc(NC(=O)OCC(C)C)n1)c1ccccc1 [Example 222] | – | log p [2]: 4.65^[b] |
| Cn1ccnc1C(=NOCc1nccc(N)n1)c1ccccc1 [Example 3] | – | log p (LC-MS, method [c]: pH 7.8 with 0.001 molar ammonium hydrogen carbonate solution in water): 1.42^[c] |
| Cc1cccc(C(=NOCc2cccc(N)n2)c2ncnn2C)c1 [Example 8] | 1.27^[b] | – |
| Cn1ncnc1C(=NOCc1nccc(NC(=O)Cc2ccccc2)n1)c1cccs1 [Example 408] | 2.64^[b] | – |
| CCCCOC(=O)Nc1cccc(CON=C(c2ccccc2)c2nc(C)cnc2C)n1 [Example 376] | 4.29^[b] | – |

| Compound | log p [1] | further results |
| --- | --- | --- |
| Cn1ncnc1C(=NOCc1csc(N)n1)c1ncc(C(F)(F)F)cc1Cl [Example 473] | – | log p [3]: 1.56^[b] |
| CCCCSC(=O)Nc1cccc(CON=C(c2ccccc2)c2nccn2C)n1 [Example 334] | 2.58^[b] | – |
| CCOC(=O)Nc1ccnc(CON=C(c2ccccc2)c2nccn2C)n1 [Example 52] | 1.47^[b] | – |
| COc1ccccc1CCC(=O)Nc1cccc(CON=C(c2ccccc2)c2ncnn2C)n1 [Example 299] | 3.44^[b] | – |
| Cn1ccnc1C(=NOCc1csc(N)n1)c1ccccc1 [Example 133] | 0.75^[b] | – |
| Cc1cc(C(F)(F)F)nn1CC(=O)Nc1cccc(CON=C(c2cccc(F)c2)c2nccn2C)n1 [Example 292] | 2.8^[b] | – |
| CCCCCOC(=O)Nc1ccnc(CON=C(c2ccc(C)cc2)c2ncnn2C)n1 [Example 41] | 3.76^[b] | – |
| Cn1cncc1C(=NO)c1cccs1 [N-hydroxy-1-(1-methyl-1H-imidazol-5-yl)-1-(2-thienyl)methanimine] | – | chromatographic logP (HCOOH (formic acid)): 0.45 |
| C=CCCOC(=O)Nc1cccc(CON=C(c2ccccc2)c2ncnn2C)n1 [Example 305] | 3.21^[b] | – |
| Cn1ncnc1C(=NOCc1cccc(N)n1)c1ncc(C(F)(F)F)cc1Cl [Example 466] | – | log p [3]: 1.3^[b] |
| 2-(6-{[({(3-bromo-4-methoxyphenyl)[3-chloro-5-(trifluoromethyl)pyridin-2-yl]methylene}amino)oxy]methyl}pyridin-2-yl)-1H-isoindole-1,3(2H)-dione [Example 430] | – | log P(HCOOH): 4.78; log p [3]: 1.67^[b] |
| Cn1ccnc1C(=NOCc1cccc(NC(=O)OCC(Cl)(Cl)Cl)n1)c1ccccc1 [Example 327] | 2.45^[b] | – |
| CCCC(=O)Nc1ccnc(CON=C(c2ccccc2)c2cncn2C)n1 [Example 129] | 1.5^[b] | – |
| Cn1cncc1C(=NO)c1ccsc1 [N-hydroxy-1-(1-methyl-1H-imidazol-5-yl)-1-(3-thienyl)methanimine] | – | chromatographic logP (HCOOH (formic acid)): 0.21 |
| Cn1ccnc1C(=NOCc1cccc(NC(=O)CCc2ccc(Cl)s2)n1)c1ccccc1 [Example 331] | 2.49^[b] | – |
| CCCCS(=O)(=O)N(c1cccc(CON=C(c2ccccc2)c2cnnn2C)n1)S(=O)(=O)CCCC [Example 80] | 4.26^[b] | – |
| CCCCCC(=O)Nc1cccc(CON=C(c2cccc(C)c2)c2ncnn2C)n1 [Example 21] | 3.71^[b] | – |
| Cn1ccnc1C(=NOCc1cccc(NC(=O)CCC2CCCCC2)n1)c1ccccc1 [Example 282] | 3.67^[b] | – |
| pentyl{2-[({[(1-methyl-1H-imidazol-5-yl)(phenyl)methylene]amino}oxy)-methyl]pyrimidin-4-yl}carbamate [Example 139] | – | log P(HCOOH): 2.66; log p [2]: 3.19^[b] |
| Cc1cnc(C)c(C(=NOCc2cccc(N)n2)c2ccccc2)n1 [Example 373] | 1.31^[b] | – |
| Cn1ncnc1C(=NOCc1cccc(NC(=O)CCc2cc(Cl)cc(Cl)c2)n1)c1ccccc1 [Example 296] | 4.29^[b] | – |
| Nc1nc(CON=C(c2ccsc2)c2snc(Cl)c2Cl)cs1 [Example 383] | 2.51^[b] | – |
| CCCCCC(=O)Nc1cccc(CON=C(c2ccccc2)c2cnc(C)n2C)n1 [Example 212] | – | log p [2]: 2.08^[b] |
| Cn1nc(C(F)(F)F)nc1C(=NOCc1cccc(NC(=O)CCc2ccccc2)n1)c1ccccc1 [Example 176] | – | log p [2]: 4.49^[b] |
